This note sets out measurements from patent publication US10251889B2, “Substituted pyrazolo[1,5-a]pyrimidine compounds as Trk kinase inhibitors” (Array BioPharma, Inc., priority 2009, dated 2019).

In the assay the target is Jak2 (human Jak2 kinase domain, amino acids 808-1132) (Homo sapiens (Human), UniProt O60674). Kind of assay: Jak2 inhibition assay (Omnia kinase assay). The format is biochemical. The conditions noted are these: read-out: Jak2 Enzyme (% inhibition at 1000 nM), Table 1; 1000 nM test compound. As for the experimental part: The assays described in Examples C, D, E and F for the determination of JAK1, JAK2, JAK3 and Tyk2 kinase activity, respectively, utilized the Omnia® Kinase fluorescence peptide substrate-based technology (Invitrogen). […] The reactions were therefore read at excitation 360 nm and emission was measured at 485 nm every 50 seconds for 45 minutes using a PerkinElmer EnVision Multilabel Plate Reader.
Sequence of Jak2 (human Jak2 kinase domain, amino acids 808-1132) (O60674 808-1132): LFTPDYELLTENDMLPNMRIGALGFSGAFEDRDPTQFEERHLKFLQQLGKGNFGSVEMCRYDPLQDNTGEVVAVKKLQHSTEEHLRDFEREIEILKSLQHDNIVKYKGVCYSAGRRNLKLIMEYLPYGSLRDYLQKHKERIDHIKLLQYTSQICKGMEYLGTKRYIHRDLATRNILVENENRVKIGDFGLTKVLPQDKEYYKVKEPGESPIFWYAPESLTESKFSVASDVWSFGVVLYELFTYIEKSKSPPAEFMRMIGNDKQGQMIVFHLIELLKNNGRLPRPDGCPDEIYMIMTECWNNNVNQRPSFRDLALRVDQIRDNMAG
The final buffer conditions for each of the JAK1, JAK2, JAK3 and Tyk2 assays were as follows: 25 mM HEPES, pH 7.4, 10 mM MgCl2, 0.01% Triton X-100 and 1 mM DTT.
Two-μL aliquots of these were transferred to a fresh plate for a ten-fold intermediate dilution with assay buffer. Five-μL aliquots of the diluted compounds were then transferred to 20-μL of assay mixtures described in Examples C, D, E and F for a final concentration of DMSO of 2%. […] For each plate, percent of control (POC) values were calculated for each well according to the following equation:
where Xmax=Average Uninhibited Controls • Xmin=Average Background IC50's were estimated from the POC's using a standard 4-parameter logistic model:
where A=Minimum Y (Bottom Asymptote) • B=Maximum Y (Top Asymptote) • C=EC50 • D=Slope Factor • X=Compound Concentration (nM) • Y=POC
The IC50 is defined as the concentration of inhibitor at which the POC equals 50 for the fitted curve.
Compounds of Formula I were screened for their ability to inhibit Jak2 using the general enzyme inhibition assay method, in which the assay mixture contained 500 μM ATP, 10 μM Omnia® Y7 peptide (Catalog # IVGN KNZ3071C, Invitrogen Corporation, Carlsbad, Calif.) and 4 nM Jak2 in a total volume of 20 μL. Human Jak2 kinase domain comprising amino acids 808-1132 was purchased from Invitrogen Corporation, Carlsbad, Calif. (catalog # IVGN PV4210).
`O=C(NCCN1CCOCC1)c1cnn2ccc(N3CCC[C@@H]3c3cc(F)ccc3F)nc12` [Example 4, (R)-5-(2-(2,5-difluorophenyl)pyrrolidin-1-yl)-N-(2-morpholinoethyl)pyrazolo[1,5-a]pyrimidine-3-carboxamide]: the inhibition (as a rule, the change of the read-out against control, counted positive when it falls) at 1 µM turned out to be 18.8%.

`O=C(NCCN1CCNC1=O)c1cnn2ccc(N3CCC[C@@H]3c3cc(F)ccc3F)nc12` [Example 24, (R)-5-(2-(2,5-difluorophenyl)pyrrolidin-1-yl)-N-(2-(2-oxoimidazolidin-1-yl)ethyl) pyrazole[1,5-a]pyrimidine-3-carboxamide]: the inhibition at 1 µM amounted to 11.5%.

For the molecule `O=C(NCCn1ccnc1)c1cnn2ccc(N3CCC[C@@H]3c3cc(F)ccc3F)nc12` [Example 28, (R)—N-(2-(1H-imidazol-1-yl)ethyl)-5-(2-(2,5-difluorophenyl)pyrrolidin-1-yl)pyrazolo[1,5-a]pyrimidine-3-carboxamide], the inhibition at 1 µM amounted to 5%.

Take `O=C(NC1(CO)CC1)c1cnn2ccc(N3CCC[C@@H]3c3cc(F)ccc3F)nc12` [Example 16, (R)-5-(2-(2,5-difluorophenyl)pyrrolidin-1-yl)-N-(1-(hydroxymethyl)cyclopropyl)pyrazolo[1,5-a]pyrimidine-3-carboxamide]: the inhibition at 1 µM was 31.7%.

Regarding `O=C(N[C@@H]1CCC[C@@H]1O)c1cnn2ccc(N3CCC[C@@H]3c3cncc(F)c3)nc12` [Example 135, 5-((R)-2-(5-fluoropyridin-3-yl)pyrrolidin-1-y1)-N-((1R,2S)-2-hydroxycyclopentyl)pyrazolo[1,5-a]pyrimidine-3-carboxainide], the inhibition at 1 µM is -1%.

Turning to `COc1ccc(F)cc1[C@H]1CCCN1c1ccn2ncc(C(=O)NC[C@H](O)CO)c2n1` [Example 55, N—((S)-2,3-dihydroxypropyl)-5-((R)-2-(5-fluoro-2-methoxyphenyl)pyrrolidin-1-yl)pyrazolo[1,5-a]pyrimidine-3-carboxamide], the inhibition at 1 µM amounted to 24.1%.

`C[C@@H](O)[C@H](CO)NC(=O)c1cnn2ccc(N3CCC[C@@H]3c3cc(F)ccc3F)nc12` [Example 174, 5-((R)-2-(2,5-difluorophenyl)pyrrolidin-1-yl)-N-((2S,3R)-1,3-dihydroxybutan-2-yl)pyrazolo[1,5-a]pyrimidine-3-carboxamide]: the inhibition at 1 µM amounted to 6.4%.

`O=C(NC1CCC1)c1cnn2ccc(N3CCC[C@@H]3c3cc(F)ccc3F)nc12` [Example 14, (R)—N-cyclobutyl-5-(2-(2,5-difluorophenyl)pyrrolidin-1-yl)pyrazolo[1,5-a]pyrimidine-3-carboxamide]: the inhibition at 1 µM turned out to be 66.7%.

Take `C[C@H](CO)NC(=O)c1cnn2ccc(N3CCC[C@@H]3c3cncc(F)c3)nc12` [Example 115, 5-((R)-2-(5-fluoropyridin-3-yl)pyrrolidin-1-yl)-N-((R)-1-hydroxypropan-2-yl)pyrazolo[1,5-a]pyrimidine-3-carboxamide]: the inhibition at 1 µM was 12.6%.

Turning to `CC(C)NC(=O)c1cnn2ccc(N3C[C@@H](O)C[C@@H]3c3cccc(F)c3)nc12` [Example 217, 5-((2R,4S)-2-(3-fluorophenyl)-4-hydroxypyrrolidin-1-yl)-N-isopropylpyrazolo[1,5-a]pyrimidine-3-carboxamide], the inhibition at 1 µM was found to be 61.7%.

In the case of `COc1ccc(F)cc1[C@H]1CCCN1c1ccn2ncc(C(=O)NC[C@@H](O)CO)c2n1` [Example 56, N—((R)-2,3-dihydroxypropyl)-5-((R)-2-(5-fluoro-2-methoxyphenyl)pyrrolidin-1-yl)pyrazolo[1,5-a]pyrimidine-3-carboxamide], the inhibition at 1 µM turned out to be 28%.

Turning to `CC(NC(=O)c1cnn2ccc(N3CCCC3c3cncc(F)c3)nc12)C1CC1` [Example 113, N-(1-cyclopropylethyl)-5-((R)-2-(5-fluoropyridin-3-yl)pyrrolidin-1-yl)pyrazolo[1,5-a]pyrimidine-3-carboxamide], the inhibition at 1 µM is 44.6%.

On to `Cn1cc(F)cc([C@H]2CCCN2c2ccn3ncc(C(=O)NC(C)(C)C)c3n2)c1=O` [Example 226, (R)—N-tert-butyl-5-(2-(5-fluoro-1-methyl-2-oxo-1,2-dihydropyridin-3-yl)pyrrolidin-1-yl)pyrazolo[1,5-a]pyrimidine-3-carboxamide], for which the inhibition at 1 µM stood at 100%.

Turning to `O=C(NC1CCOCC1)c1cnn2ccc(N3CCC[C@@H]3c3cc(F)ccc3F)nc12` [Example 20, (R)-5-(2-(2,5-difluorophenyl)pyrrolidin-1-yl)-N-(tetrahydro-2H-pyran-4-yl)pyrazolo[1,5-a]pyrimidine-3-carboxamide], the inhibition at 1 µM was determined as 78.9%.

As for `COCC(C)NC(=O)c1cnn2ccc(N3CCCC3c3cncc(F)c3)nc12` [Example 118, 5-((R)-2-(5-fluoropyridin-3-yl)pyrrolidin-1-yl)-N-(1-methoxypropan-2-yl)pyrazolo[1,5-a]pyrimidine-3-carboxamide], the inhibition at 1 µM was -4.5%.

In the case of `CNC(=O)c1cnn2ccc(N3CCC[C@@H]3c3cc(F)cnc3C)nc12` [Example 186, (R)-5-(2-(5-fluoro-2-methylpyridin-3-yl)pyrrolidin-1-yl)-N-methylpyrazolo[1,5-a]pyrimidine-3-carboxamide], the inhibition at 1 µM worked out at 10.5%.

Take `O=C(O)CC1CCN(C(=O)c2cnn3ccc(N4CCC[C@@H]4c4cc(F)ccc4F)nc23)CC1` [Example 12, (R)-2-(1-(5-(2-(2,5-difluorophenyl)pyrrolidin-1-yl)pyrazolo[1,5-a]pyrimidine-3-carbonyl)piperidin-4-yl)acetic Acid]: the inhibition at 1 µM amounted to 4.5%.

For `O=C(NC[C@H](O)CO)c1cnn2ccc(N3CCC[C@@H]3c3cc(F)ccc3C(F)(F)F)nc12` [Example 62, N—((S)-2,3-dihydroxypropyl)-5-((R)-2-(5-fluoro-2-(trifluoromethyl)phenyl)pyrrolidin-1-yl)pyrazolo[1,5-a]pyrimidine-3-carboxamide], the inhibition at 1 µM is 35.2%.

Take `Cn1cc(F)cc([C@H]2CCCN2c2ccn3ncc(C(=O)NCC4CC4)c3n2)c1=O` [Example 232, (R)-N-(cyclopropylmethyl)-5-(2-(5-fluoro-1-methyl-oxo-1,2-dihydropyridin-3-yl)pyrrolidin-1-yl)pyrazolo[1,5-a]pyrimidine-3-carboxamide]: the inhibition at 1 µM was 31.9%.

`COc1ncc(F)cc1[C@H]1CCCN1c1ccn2ncc(C(=O)N3CC(C)(O)C3)c2n1` [Example 147, (R)-(5-(2-(5-fluoro-2-methoxypyridin-3-yl)pyrrolidin-1-yl)pyrazolo[1,5-a]pyrimidin-3-yl)(3-hydroxy-3-methylazetidin-1-yl)methanone]: the inhibition at 1 µM is 0.9%.

For `CONC(=O)c1cnn2ccc(N3CCC[C@@H]3c3cccc(F)c3)nc12` [Example 75], the inhibition at 1 µM is 15.1%.

As to `COc1ncc(F)cc1[C@H]1CCCN1c1ccn2ncc(C(=O)NC3CC3)c2n1` [Example 79, (R)—N-cyclopropyl-5-(2-(5-fluoro-2-methoxypyridin-3-yl)pyrrolidin-1-yl)pyrazolo[1,5-a]pyrimidine-3-carboxamide], the inhibition at 1 µM was 54.8%.

Consider `COCCNC(=O)c1cnn2ccc(N3CCC[C@@H]3c3cc(F)ccc3F)nc12` [Example 172, 5-((R)-2-(2,5-difluorophenyl)pyrrolidin-1-yl)-N-(2-methoxyethyl)pyrazolo[1,5-a]pyrimidine-3-carboxamide], for which the inhibition at 1 µM worked out at 11%.

`COCCOc1ccc(F)cc1[C@H]1CCCN1c1ccn2ncc(C(=O)NC3CC3)c2n1` [Example 90, (R)—N-cyclopropyl-5-(2-(5-fluoro-2-(2-methoxyethoxy)phenyl)pyrrolidin-1-yl)pyrazolo[1,5-a]pyrimidine-3-carboxamide]: the inhibition at 1 µM was 67.3%.

For the molecule `COc1ncc(F)cc1[C@H]1CCCN1c1ccn2ncc(C(=O)NC[C@H](O)CO)c2n1` [Example 143, N—((S)-2,3-dihydroxypropyl)-5-((R)-2-(5-fluoro-2-methoxypyridin-3-yl)pyrrolidin-1-yl)pyrazolo[1,5-a]pyrimidine-3-carboxamide], the inhibition at 1 µM is 7%.

As for `CC(C)NC(=O)c1cnn2ccc(N3CCC[C@@H]3c3cc(F)cn(C)c3=O)nc12` [Example 227, (R)-5-(2-(5-fluoro-1-methyl-2-oxo-1,2-dihydropyridin-3-yl)pyrrolidin-1-yl)-N-isopropylpyrazolo[1,5-a]pyrimidine-3-carboxamide], the inhibition at 1 µM came to 62.8%.

On to `O=C(c1cnn2ccc(N3CCC[C@@H]3c3cncc(F)c3)nc12)N1CCCCC1` [Example 137, (R)-(5-(2-(5-fluoropyridin-3-yl)pyrrolidin-1-yl)pyrazolo[1,5-a]pyrimidin-3-yl)(piperidin-1-yl)methanone], for which the inhibition at 1 µM came to 3.6%.

Regarding `COCCNC(=O)c1cnn2ccc(N3CCC[C@@H]3c3cc(F)cnc3C)nc12` [Example 191, (R)-5-(2-(5-fluoro-2-methylpyridin-3-yl)pyrrolidin-1-yl)-N-(2-methoxyethyl)pyrazolo[1,5-a]pyrimidine-3-carboxamide], the inhibition at 1 µM amounted to 4.8%.
